Target: T1, β-kinase domain of the human insulin receptor (CKD) (Homo sapiens, UniProt P06213)
T1 construct: The complete β-kinase domain of the human insulin receptor (CKD); made in house
Experiment: 32P-Cytoplasmic Kinase Domain (CKD) autophosphorylation assay
Format: biochemical
Conditions: 32P incorporated into CKD band, percentage of the vehicle (DMSO) level; 10 minutes at room temperature; compound concentration not given
Experimental: The complete β-kinase domain of the human insulin receptor (CKD) was expressed in, and purified from, baculovirus. CKD (4.0 μg/mL), in a solution of 50 mM Tris.HCl, 2 mM MnCl2, 10 mM MgCl2 (50 μl final volume), was combined with […] ATP, and 5 μCi ^32P-ATP (3000 Ci/mmol.). A test compound, or the vehicle (DMSO), was added to a final DMSO concentration of 1%. The mixture was incubated for 10 minutes at room temperature. The reaction was terminated by the addition of 10 μl of 200 mM EDTA. A 30 μl volume was removed, mixed with 5 μl of 6×Laemmeli sodium dodecyl sulfate (SDS) treatment buffer, and heated to 94° C. for 5 minutes. A 20 μl aliquot was then run on an SDS-PAGE gel. The radioactivity incorporated into the CKD band is quantified by phosphorimaging of the gel, or scintillation counting of the excised bands.
The potency of a compound for increasing phosphorylation is expressed as a percentage of the vehicle level.

T1 sequence (P06213 980-1382 limits assumed): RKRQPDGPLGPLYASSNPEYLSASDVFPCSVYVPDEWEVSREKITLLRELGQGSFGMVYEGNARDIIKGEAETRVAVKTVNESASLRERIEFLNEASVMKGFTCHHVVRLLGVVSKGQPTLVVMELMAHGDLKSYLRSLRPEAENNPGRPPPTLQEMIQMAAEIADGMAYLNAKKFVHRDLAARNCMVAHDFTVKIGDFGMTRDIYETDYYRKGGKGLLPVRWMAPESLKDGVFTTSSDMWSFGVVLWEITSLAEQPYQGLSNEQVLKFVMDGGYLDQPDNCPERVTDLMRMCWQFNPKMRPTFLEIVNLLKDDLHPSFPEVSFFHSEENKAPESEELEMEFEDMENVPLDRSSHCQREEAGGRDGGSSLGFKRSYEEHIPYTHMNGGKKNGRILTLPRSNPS

Cc1ccccc1NC(=O)Nc1cc(C(=O)Nc2cccc3cc(S(=O)(=O)O)ccc23)cc(C(=O)Nc2cccc3cc(S(=O)(=O)O)ccc23)c1 [Compound 60, 5-[(3-{[(2-methylphenyl)amino]carbonylamino}-5-[N-(6-sulfonaphthyl)carbamoyl]phenyl)carbonylamino]naphthalene-2-sulfonic acid]
Activity (% Control): 97.5 % Control

O=C(Cc1ccccc1)Nc1cc(C(=O)Nc2cccc3cc(S(=O)(=O)O)ccc23)cc(C(=O)Nc2cccc3cc(S(=O)(=O)O)ccc23)c1 [Compound 37, 5-({3-(2-phenylacetylamino)-5-[N-(6-sulfonaphthyl)carbamoyl]phenyl}carbonylamino)naphthalene-2-sulfonic acid]
Activity (% Control): 113.2 % Control

O=C(Nc1cccc2cc(S(=O)(=O)O)ccc12)c1cc(NS(=O)(=O)Cc2ccccc2)cc(C(=O)Nc2cccc3cc(S(=O)(=O)O)ccc23)c1 [Compound 56, 5-[(5-{[benzylsulfonyl]amino}-3-[N-(6-sulfonaphthyl)carbamoyl]phenyl)carbonylamino]naphthalene-2-sulfonic acid]
Activity (% Control): 102.4 % Control

O=C(Nc1cccc2cc(S(=O)(=O)O)ccc12)c1cc(NS(=O)(=O)c2ccccc2)cc(C(=O)Nc2cccc3cc(S(=O)(=O)O)ccc23)c1 [Compound 48, 5-({3-[(phenylsulfonyl)amino]-5-[N-(6-sulfonaphthyl)carbamoyl]phenyl}carbonylamino)naphthalene-2-sulfonic acid]
Activity (% Control): 114.2 % Control

O=C(Nc1cccc(Cl)c1)Nc1cc(C(=O)Nc2cccc3cc(S(=O)(=O)O)ccc23)cc(C(=O)Nc2cccc3cc(S(=O)(=O)O)ccc23)c1 [Compound 57, 5-[(3-{[(3-chlorophenyl)amino]carbonylamino}-5-[N-(6-sulfonaphthyl)carbamoyl]phenyl)carbonylamino]naphthalene-2-sulfonic acid]
Activity (% Control): 109.6 % Control

O=C(Nc1cccc2cc(S(=O)(=O)O)ccc12)c1cc(NS(=O)(=O)c2ccc3ccccc3c2)cc(C(=O)Nc2cccc3cc(S(=O)(=O)O)ccc23)c1 [Compound 49, 5-({3-[(2-naphthylsulfonyl)amino]-5-[N-(6-sulfonaphthyl)carbamoyl]phenyl}carbonylamino)naphthalene-2-sulfonic acid]
Activity (% Control): 109.3 % Control

O=C(COc1ccccc1)Nc1cc(C(=O)Nc2cccc3cc(S(=O)(=O)O)ccc23)cc(C(=O)Nc2cccc3cc(S(=O)(=O)O)ccc23)c1 [Compound 38, 5-({3-(2-phenoxyacetylamino)-5-[N-(6-sulfonaphthyl)carbamoyl]phenyl}carbonylamino)naphthalene-2-sulfonic acid]
Activity (% Control): 84.7 % Control

O=C(O)c1ccc(C(=O)Nc2cc(C(=O)Nc3cccc4cc(S(=O)(=O)O)ccc34)cc(C(=O)Nc3cccc4cc(S(=O)(=O)O)ccc34)c2)cc1 [Compound 31, 4-(N-{3,5-bis[N-(6-sulfonaphthyl)carbamoyl]phenyl}carbamoyl)benzoic acid]
Activity (% Control): 159.2 % Control

O=C(Nc1cccc2cc(S(=O)(=O)O)ccc12)c1cc(NC(=O)c2c(Cl)ccc(Cl)c2C(=O)O)cc(C(=O)Nc2cccc3cc(S(=O)(=O)O)ccc23)c1 [Compound 20]
Activity (% Control): 84.9 % Control

O=C(Nc1cccc2cc(S(=O)(=O)O)ccc12)c1cc(NC(=O)c2cccc3ccccc23)cc(C(=O)Nc2cccc3cc(S(=O)(=O)O)ccc23)c1 [Compound 25, 5-({3-(1-naphthylcarbonylamino)-5-[N-(6-sulfonaphthyl)carbamoyl]phenyl}carbonylamino)naphthalene-2-sulfonic acid]
Activity (% Control): 83.7 % Control

O=C(Nc1cc(C(=O)Nc2cccc3cc(S(=O)(=O)O)ccc23)cc(C(=O)Nc2cccc3cc(S(=O)(=O)O)ccc23)c1)c1ccc2ccccc2c1 [Compound 24, 5-({3-(2-naphthylcarbonylamino)-5-[N-(6-sulfonaphthyl)carbamoyl]phenyl}carbonylamino)naphthalene-2-sulfonic acid]
Activity (% Control): 89.6 % Control

Cc1cc(C)c(S(=O)(=O)Nc2cc(C(=O)Nc3cccc4cc(S(=O)(=O)O)ccc34)cc(C(=O)Nc3cccc4cc(S(=O)(=O)O)ccc34)c2)c(C)c1 [Compound 55, 5-[(3-{[(2,4,6-trimethylphenyl)sulfonyl]amino}-5-[N-(6-sulfonaphthyl)carbamoyl]phenyl)carbonylamino]naphthalene-2-sulfonic acid]
Activity (% Control): 121.6 % Control

O=C(Nc1ccc(Cl)cc1)Nc1cc(C(=O)Nc2cccc3cc(S(=O)(=O)O)ccc23)cc(C(=O)Nc2cccc3cc(S(=O)(=O)O)ccc23)c1 [Compound 58, 5-[(3-{[(4-chlorophenyl)amino]carbonylamino}-5-[N-(6-sulfonaphthyl)carbamoyl]phenyl)carbonylamino]naphthalene-2-sulfonic acid]
Activity (% Control): 106.4 % Control

Cc1cccc(NC(=O)Nc2cc(C(=O)Nc3cccc4cc(S(=O)(=O)O)ccc34)cc(C(=O)Nc3cccc4cc(S(=O)(=O)O)ccc34)c2)c1 [Compound 61, 5-[(3-{[(3-methylphenyl)amino]carbonylamino}-5-[N-(6-sulfonaphthyl)carbamoyl]phenyl)carbonylamino]naphthalene-2-sulfonic acid]
Activity (% Control): 114.6 % Control

N[C@@H](CC(=O)O)C(=O)Nc1cc(C(=O)Nc2cccc3cc(S(=O)(=O)O)ccc23)cc(C(=O)Nc2cccc3cc(S(=O)(=O)O)ccc23)c1 [Compound 26, (3S)-3-amino-3-(N-{3,5-bis[N-(6-sulfonaphthyl)carbamoyl]phenyl}carbamoyl)propanoic acid]
Activity (% Control): 91.4 % Control

O=C(Nc1cccc2cc(S(=O)(=O)O)ccc12)c1cc(NS(=O)(=O)c2ccc(F)cc2)cc(C(=O)Nc2cccc3cc(S(=O)(=O)O)ccc23)c1 [Compound 51, 5-[(3-{[(4-fluorophenyl)sulfonyl]amino}-5-[N-(6-sulfonaphthyl)carbamoyl]phenyl)carbonylamino]naphthalene-2-sulfonic acid]
Activity (% Control): 133.0 % Control

O=C(Nc1cc(C(=O)Nc2cccc3cc(S(=O)(=O)O)ccc23)cc(C(=O)Nc2cccc3cc(S(=O)(=O)O)ccc23)c1)c1ccc([N+](=O)[O-])cc1 [Compound 14, 5-({3-[(4-nitrophenyl)carbonylamino]-5-[N-(6-sulfonaphthyl)carbamoyl]phenyl}carbonylamino)naphthalene-2-sulfonic acid]
Activity (% Control): 81.7 % Control

Cc1ccc(CC(=O)Nc2cc(C(=O)Nc3cccc4cc(S(=O)(=O)O)ccc34)cc(C(=O)Nc3cccc4cc(S(=O)(=O)O)ccc34)c2)cc1 [Compound 43, 5-({3-[2-(4-methylphenyl)acetylamino]-5-[N-(6-sulfonaphthyl)carbamoyl]phenyl}carbonylamino)naphthalene-2-sulfonic acid]
Activity (% Control): 124.2 % Control

O=C(O)CCC(=O)Nc1cc(C(=O)Nc2cccc3cc(S(=O)(=O)O)ccc23)cc(C(=O)Nc2cccc3cc(S(=O)(=O)O)ccc23)c1 [Compound 32, 3-(N-{3,5-bis[N-(6-sulfonaphthyl)carbamoyl]phenyl}carbamoyl)propanoic acid]
Activity (% Control): 109.9 % Control

O=C(Nc1cc(C(=O)Nc2cccc3cc(S(=O)(=O)O)ccc23)cc(C(=O)Nc2cccc3cc(S(=O)(=O)O)ccc23)c1)c1cccnc1 [Compound 36, 5-({3-(3-pyridylcarbonylamino)-5-[N-(6-sulfonaphthyl)carbamoyl]phenyl}carbonylamino)naphthalene-2-sulfonic acid]
Activity (% Control): 123.2 % Control
